According to US8147818B2, “Hepatitis C virus inhibitors” (Bristol-Myers Squibb Company, priority 2008, dated 2012):

test system: HCV 1b-377-neo replicon cells; test: HCV Replicon assay, HCV 1b-377-neo replicon cells; format: cell-based, HCV 1b genotype; conditions: Hepatitis C virus, read-out: EC50 against HCV 1b (Activity or Range)
Description: An HCV Replicon assay was utilized in the present disclosure, and was prepared, conducted and validated as described in commonly owned PCT/US2006/022197 and in O'Boyle et. al. Antimicrob Agents Chemother. 2005 April; 49(4):1346-53.
HCV 1b-377-neo replicon cells were used to test the currently described compound series as well as cells resistant to compound A containing a Y2065H mutation in NS5A (described in application PCT/US2006/022197). The compounds tested were determined to have more than 10-fold less inhibitory activity on cells containing the mutation than wild-type cells indicating a related mechanism of action between the two compound series. Thus, the compounds of the present disclosure can be effective to inhibit the function of the HCV NS5A protein and are understood to be as effective in combinations as previously described in application PCT/US2006/022197 and commonly owned WO/O4014852. Further, the compounds of the present disclosure can be effective against the HCV 1b genotype. It should also be understood that the compounds of the present disclosure can inhibit multiple genotypes of HCV. […] In one embodiment compounds of the present disclosure are active against the 1a, 1b, 2a, 2b, 3a, 4a, and 5a genotypes.

Row | SMILES | EC50
1 | COC(=O)N[C@H](C(=O)N1CC(F)(F)C[C@H]1c1ncc(-c2ccc(-c3ccc4c(c3)CCc3[nH]c([C@@H]5CCCN5C(=O)[C@@H](NC(=O)OC)C(C)C)nc3-4)cc2)[nH]1)C(C)C [Example 22t] | 0.001 nM
2 | COC(=O)N[C@H](C(=O)N1[C@@H]2C[C@@H]2C[C@H]1c1nc2c([nH]1)CCc1cc(-c3ccc(-c4[nH]c([C@@H]5C[C@H]6C[C@H]6N5C(=O)[C@@H](NC(=O)OC)C(C)C)nc4CC(F)(F)F)cc3)ccc1-2)C(C)C [Example 22r.3] | 0.003 nM
3 | COC(=O)N[C@H](C(=O)N(C)[C@@H](C)c1ncc(-c2ccc(-c3ccc4c(c3)CCCc3[nH]c([C@@H]5CCCN5C(=O)[C@@H](NC(=O)OC)C(C)C)nc3-4)cc2)[nH]1)C(C)C [Example 22e] | 0.003 nM
4 | CCN(CC)[C@@H](C(=O)N1CC(F)(F)C[C@H]1c1ncc(-c2ccc(-c3ccc4c(ccc5[nH]c([C@@H]6CCCN6C(=O)[C@@H](c6ccccc6)N(CC)CC)nc54)c3)cc2)[nH]1)c1ccccc1 [Example 22w.a] | 0.12 nM
5 | COC(=O)N[C@H](C(=O)N1CCC[C@H]1c1ncc(-c2cccc(-c3ccc4c(c3)-c3nc([C@@H]5CCCN5C(=O)[C@@H](NC(=O)OC)C(C)C)[nH]c3CCC4)c2)[nH]1)C(C)C [Example 22j] | 14 nM
6 | CCN(CC)[C@@H](C(=O)N1CCC[C@H]1c1nc2c([nH]1)CCCc1cc(-c3ccc(-c4[nH]c([C@@H]5CCCN5C(=O)[C@@H](c5ccccc5)N(CC)CC)nc4CC(F)(F)F)cc3)ccc1-2)c1ccccc1 [Example 22a.3] | 0.01 nM

same assay, conditions: Hepatitis C virus, read-out: EC50 against HCV 1b (Activity or Range), range class

Row | SMILES | EC50
7 | CCN(CC)[C@@H](C(=O)N1CCC[C@H]1c1nc2c([nH]1)CCCc1cc(-c3ccc4c(c3)CCCc3[nH]c([C@@H]5CCCN5C(=O)[C@@H](c5ccccc5)N(CC)CC)nc3-4)ccc1-2)c1ccccc1 [Example 22k.1] | 0.001 to 0.1 nM
8 | CCN(CC)[C@@H](C(=O)N1CCC[C@H]1c1nc2c(ccc3cc(-c4ccc5c(ccc6nc([C@@H]7CCCN7C(=O)[C@@H](c7ccccc7)N(CC)CC)[nH]c65)c4)ccc32)[nH]1)c1ccccc1 [Example 22u.2a] | 0.001 to 0.1 nM
9 | COC(=O)N[C@H](C(=O)N1CCC[C@H]1c1ncc(-c2ccc(-c3ccc4c(c3)CCc3[nH]c([C@@H]5CCCN5C(=O)[C@@H](NC(=O)OC)C(C)C)nc3C4)cc2)[nH]1)C(C)C [Example 22o] | 0.101 to 0.999 nM
10 | CCN(CC)[C@@H](C(=O)N1CCC[C@H]1c1ncc(-c2ccc(-c3ccc4c(ccc5[nH]c([C@@H]6CCCN6C(=O)[C@@H](c6ccccc6)N(CC)CC)nc54)c3)cc2F)[nH]1)c1ccccc1 [Example 22v.a] | 0.101 to 0.999 nM
11 | CCN(CC)[C@@H](C(=O)N(C)[C@@H](C)c1nc2c([nH]1)CCCc1cc(-c3ccc(-c4cnc([C@@H]5CCCN5C(=O)[C@@H](c5ccccc5)N(CC)CC)[nH]4)cc3)ccc1-2)c1ccccc1 [Example 22b.1] | 0.001 to 0.1 nM
12 | CCN(CC)[C@@H](C(=O)N1[C@@H]2C[C@@H]2C[C@H]1c1nc2c(ccc3cc(-c4ccc5c(ccc6nc([C@@H]7C[C@H]8C[C@H]8N7C(=O)[C@@H](NC(=O)OC)C(C)C)[nH]c65)c4)ccc32)[nH]1)c1ccccc1 [Example 24.2] | 0.001 to 0.1 nM
13 | COC(=O)N[C@H](C(=O)N1CCC[C@H]1c1ncc(-c2ccc(-c3ccc4c(ccc5[nH]c([C@@H]6CCCN6C(=O)[C@@H](NC(=O)OC)C(C)C)nc54)c3)cc2F)[nH]1)C(C)C [Example 22v] | 0.001 to 0.1 nM
14 | CCN(CC)[C@@H](C(=O)N1[C@@H]2C[C@@H]2C[C@H]1c1ncc(-c2ccc(-c3ccc4c(c3)CCCc3[nH]c([C@@H]5C[C@H]6C[C@H]6N5C(=O)[C@@H](c5ccccc5)N(CC)CC)nc3-4)cc2)[nH]1)c1ccccc1 [Example 22c.3] | 0.001 to 0.1 nM
15 | CCN(CC)[C@@H](C(=O)N1[C@@H]2C[C@@H]2C[C@H]1c1ncc(-c2ccc(-c3ccc4c(c3)CCc3[nH]c([C@@H]5C[C@H]6C[C@H]6N5C(=O)[C@@H](c5ccccc5)N(CC)CC)nc3-4)cc2)[nH]1)c1ccccc1 [Example 22r.2a] | 0.001 to 0.1 nM
16 | COC(=O)N[C@H](C(=O)N1CCC[C@H]1c1ncc(-c2ccc(-c3ccc4c(c3)OCc3[nH]c([C@@H]5CCCN5C(=O)[C@@H](NC(=O)OC)C(C)C)nc3-4)cc2)[nH]1)C(C)C [Example 22r.b] | 0.001 to 0.1 nM
17 | COC(=O)N[C@H](C(=O)N1[C@@H]2C[C@@H]2C[C@H]1c1nc2c(ccc3cc(-c4ccc5c(ccc6nc([C@@H]7C[C@H]8C[C@H]8N7C(=O)[C@@H](NC(=O)OC)C(C)C)[nH]c65)c4)ccc32)[nH]1)C(C)C [Example 22u.5] | 0.001 to 0.1 nM
18 | COC(=O)N[C@H](C(=O)N1[C@@H]2C[C@@H]2C[C@H]1c1ncc(-c2ccc(-c3ccc4c(ccc5[nH]c([C@@H]6C[C@H]7C[C@H]7N6C(=O)[C@@H](NC(=O)OC)C(C)C)nc54)c3)cc2)[nH]1)C(C)C [Example 22u.1] | 0.001 to 0.1 nM
19 | COC(=O)N[C@H](C(=O)N1CCC[C@H]1c1nc2ccc3cc(-c4ccc5c(ccc6[nH]c([C@@H]7CCCN7C(=O)[C@H](NC(=O)OC)c7ccccc7)nc65)c4)ccc3c2[nH]1)C(C)C [Example 24.1a] | 0.001 to 0.1 nM
20 | COC(=O)N[C@H](C(=O)N1CC(F)(F)C[C@H]1c1ncc(-c2ccc(-c3ccc4c(c3)CCCc3[nH]c([C@@H]5CCCN5C(=O)[C@@H](NC(=O)OC)C(C)C)nc3-4)cc2)[nH]1)C(C)C [Example 22h] | 0.001 to 0.1 nM
21 | COC(=O)N[C@H](C(=O)N[C@@H](C)c1nc2c([nH]1)CCCc1cc(-c3ccc(-c4cnc([C@@H]5CCCN5C(=O)[C@@H](NC(=O)OC)C(C)C)[nH]4)cc3)ccc1-2)C(C)C [Example 22c] | 0.001 to 0.1 nM
22 | COC(=O)N[C@H](C(=O)N1CCC[C@H]1c1nc2ccc3cc(-c4ccc5c(ccc6[nH]c([C@@H]7CCCN7C(=O)[C@@H](NC(=O)OC)C7CCOCC7)nc65)c4)ccc3c2[nH]1)C(C)C [Example 24.1b] | 0.001 to 0.1 nM
23 | CCN(CC)[C@@H](C(=O)N1[C@@H]2C[C@@H]2C[C@H]1c1ncc(-c2ccc(-c3ccc4c(ccc5[nH]c([C@@H]6C[C@H]7C[C@H]7N6C(=O)[C@@H](c6ccccc6)N(CC)CC)nc54)c3)cc2F)[nH]1)c1ccccc1 [Example 22v.1a] | 0.001 to 0.1 nM
24 | COC(=O)N[C@H](C(=O)N1[C@@H]2C[C@@H]2C[C@H]1c1nc2c([nH]1)-c1ccc(-c3ccc4c(ccc5[nH]c([C@@H]6C[C@H]7C[C@H]7N6C(=O)[C@@H](NC(=O)OC)C(C)C)nc54)c3)cc1CC2)C(C)C [Example 22u.4] | 0.001 to 0.1 nM
25 | COC(=O)N[C@H](C(=O)N1[C@@H]2C[C@@H]2C[C@H]1c1nc2ccc3cc(-c4ccc5c(ccc6[nH]c([C@@H]7C[C@H]8C[C@H]8N7C(=O)[C@@H](NC(=O)OC)C7CCOCC7)nc65)c4)ccc3c2[nH]1)C(C)C [Example 24.2b] | 0.001 to 0.1 nM
26 | COC(=O)N[C@H](C(=O)N1[C@@H]2C[C@@H]2C[C@H]1c1nc2c([nH]1)CCc1cc(-c3ccc4c(c3)CCc3[nH]c([C@@H]5C[C@H]6C[C@H]6N5C(=O)[C@@H](NC(=O)OC)C(C)C)nc3-4)ccc1-2)C(C)C [Example 22r.5] | 0.001 to 0.1 nM
27 | COC(=O)N[C@H](C(=O)N[C@@H](C)c1ncc(-c2ccc(-c3ccc4c(c3)CCCc3[nH]c([C@@H]5CCCN5C(=O)[C@@H](NC(=O)OC)C(C)C)nc3-4)cc2)[nH]1)C(C)C [Example 22f] | 0.001 to 0.1 nM
28 | COC(=O)N[C@H](C(=O)N1CC(F)(F)C[C@H]1c1ncc(-c2ccc(-c3ccc4c(ccc5[nH]c([C@@H]6CC(F)(F)CN6C(=O)[C@@H](NC(=O)OC)C(C)C)nc54)c3)cc2)[nH]1)C(C)C [Example 22w.2] | 0.001 to 0.1 nM
29 | COC(=O)N[C@H](C(=O)N1[C@@H]2C[C@@H]2C[C@H]1c1nc2ccc3cc(-c4ccc5c(ccc6[nH]c([C@@H]7C[C@H]8C[C@H]8N7C(=O)C(c7ccccc7)N7C8CCC7CC8)nc65)c4)ccc3c2[nH]1)C(C)C (some centres unmarked) [Example 24.2d] | 0.001 to 0.1 nM
30 | CCN(CC)[C@@H](C(=O)N1CCC[C@H]1c1ncc(-c2ccc(-c3ccc4c(c3)CCc3[nH]c([C@@H]5CCCN5C(=O)[C@@H](c5ccccc5)N(CC)CC)nc3-4)cc2F)[nH]1)c1ccccc1 [Example 22s.a] | 0.001 to 0.1 nM
31 | CCN(CC)[C@@H](C(=O)N1CCC[C@H]1c1ncc(-c2ccc(-c3ccc4c(c3)CCCc3c-4nc([C@@H]4CCCN4C(=O)[C@@H](c4ccccc4)N(CC)CC)n3O)cc2)[nH]1)c1ccccc1 [Example 22n.1] | 0.001 to 0.1 nM
32 | COC(=O)N[C@H](C(=O)N1[C@@H]2C[C@@H]2C[C@H]1c1ncc(-c2ccc(-c3ccc4c(ccc5[nH]c([C@@H]6C[C@H]7C[C@H]7N6C(=O)[C@@H](NC(=O)OC)C(C)C)nc54)c3)cc2F)[nH]1)C(C)C [Example 22v.1] | 0.001 to 0.1 nM
33 | COC(=O)N[C@H](C(=O)N1CCC[C@H]1c1ncc(-c2ccc(-c3ccc4c(ccc5[nH]c([C@@H]6CC(F)(F)CN6C(=O)[C@@H](NC(=O)OC)C(C)C)nc54)c3)cc2)[nH]1)C(C)C [Example 22w.1] | 0.001 to 0.1 nM
34 | COC(=O)N[C@H](C(=O)N1CCC[C@H]1c1nc2c([nH]1)CCc1cc(-c3ccc4c(c3)CCc3[nH]c([C@@H]5CCCN5C(=O)[C@@H](NC(=O)OC)C(C)C)nc3-4)ccc1-2)C(C)C [Example 22r.4] | 0.001 to 0.1 nM
35 | COC(=O)N[C@H](C(=O)N1CCC[C@H]1c1ncc(-c2ccc(-c3ccc4c(ccc5[nH]c([C@@H]6CCCN6C(=O)[C@@H](NC(=O)OC)C(C)C)nc54)c3)cc2)[nH]1)C(C)C [Example 22u] | 0.001 to 0.1 nM
